Experimental data from ChEMBL document CHEMBL1153195 (Bioorg Med Chem Lett, 2010).

Assays:
Gerbillinae = assay: Anxiolytic-like activity in po or sc dosed gerbils assessed as inhibition of GR-73632-induced foot tapping administered 1 hr before GR-73632 challenge measured; assay type: functional; settings: for ED50: read-out: ID50 (the source's name)
Substance-P receptor = Substance-P receptor (Homo sapiens, UniProt P25103); assay: Displacement of [3H]substance P from human NK1 receptor expressed in CHO cells; assay type: cell-based
[1] = Ratio of drug level in brain to plasma in rat at 1 mg/kg, po after 5 mins; assay type: ADME, organism-based; parameters: dose 1 mg/kg, route oral
[2] = Cmax in rat at 1 mg/kg, po; assay type: ADME, organism-based; parameters: dose 1 mg/kg, route oral; settings: in vivo
[3] = AUC (0 to 8 hrs) in rat at 1 mg/kg, po; assay type: ADME, organism-based; parameters: time < 8 hr, dose 1 mg/kg, route oral; settings: plasma

Sequence of Substance-P receptor (P25103 whole entry): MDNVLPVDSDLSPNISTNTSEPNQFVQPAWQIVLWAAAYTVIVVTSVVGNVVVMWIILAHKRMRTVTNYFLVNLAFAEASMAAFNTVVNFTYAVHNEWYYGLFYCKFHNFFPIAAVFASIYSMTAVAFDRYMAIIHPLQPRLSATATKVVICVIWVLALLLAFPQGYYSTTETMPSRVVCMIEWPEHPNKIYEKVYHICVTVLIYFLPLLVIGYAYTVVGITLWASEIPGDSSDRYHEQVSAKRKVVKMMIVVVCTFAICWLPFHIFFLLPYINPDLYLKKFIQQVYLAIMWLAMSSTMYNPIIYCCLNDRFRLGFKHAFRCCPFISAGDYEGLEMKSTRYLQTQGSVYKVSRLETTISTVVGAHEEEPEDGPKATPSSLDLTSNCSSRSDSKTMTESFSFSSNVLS

Structure (SMILES) | Ki (Substance-P receptor) [nM] | also measured
Cc1cc(F)ccc1[C@H]1CNCCN1C(=O)N1CCNCC1c1cc(C(F)(F)F)cc(C(F)(F)F)c1 (stereo in doubt; 5b) [listing 1 of 2 here] |  | Activity (Gerbillinae): Dose-dependent effect
Cc1cc(F)ccc1[C@H]1CNCCN1C(=O)N1CCNCC1c1cc(C(F)(F)F)cc(C(F)(F)F)c1 (stereo in doubt; 5b) [listing 2 of 2 here] | 0.794 | ED50 (Gerbillinae): 0.4 mg/kg; Kp at 5 min [1]: 0.9; Cmax [2]: 32 ng/mL; AUC(0-t) at 8 h [3]: 145 ng·h/mL
Cc1cc(F)ccc1C1CNCC2CN(Cc3cc(C(F)(F)F)cc(C(F)(F)F)c3)C(=O)N21 (stereo not given) | 50.1 | 
Cc1cc(F)ccc1[C@H]1CNCCN1C(=O)N1CCNCC1c1cc(C(F)(F)F)cc(C(F)(F)F)c1 (stereo in doubt; 5a) | 100 | 
Cc1cc(F)ccc1[C@H]1CNCCN1C(=O)N1CCCCC1c1cc(C(F)(F)F)cc(C(F)(F)F)c1 (stereo in doubt; 4a) | 31.6 | 
Cc1cc(F)ccc1[C@H]1CNCCN1C(=O)N1CCCC1c1cc(C(F)(F)F)cc(C(F)(F)F)c1 (stereo in doubt; 2b) | 6.31 | 
Cc1cc(F)ccc1[C@H]1CNCCN1C(=O)N1CCCCC1c1cc(C(F)(F)F)cc(C(F)(F)F)c1 (stereo in doubt; 4b) | 1.26 | 
Cc1cc(F)ccc1[C@H]1CNCCN1C(=O)N(C)C1(c2cc(C(F)(F)F)cc(C(F)(F)F)c2)CC1 | 0.501 | Activity (Gerbillinae): Dose-dependent effect; ED50 (Gerbillinae): 0.2 mg/kg; Cmax [2]: 29 ng/mL; AUC(0-t) at 8 h [3]: 108 ng·h/mL
Cc1cc(F)ccc1[C@H]1CNCCN1C(=O)N1CCC=CC1c1cc(C(F)(F)F)cc(C(F)(F)F)c1 (stereo in doubt; 3a) | 20 | 
Cc1cc(F)ccc1[C@H]1CNCCN1C(=O)N1CCC=CC1c1cc(C(F)(F)F)cc(C(F)(F)F)c1 (stereo in doubt; 3b) | 0.501 | 
Cc1cc(F)ccc1[C@H]1CNCCN1C(=O)N1CCCC1c1cc(C(F)(F)F)cc(C(F)(F)F)c1 (stereo in doubt; 2a) | 63.1 | 
Cc1cc(F)ccc1[C@H]1CNCCN1C(=O)N(C)[C@H](C)c1cc(C(F)(F)F)cc(C(F)(F)F)c1 [VESTIPITANT] |  | ED50 (Gerbillinae): 0.014 mg/kg
